Source: article PMC10150366, “Discovery of an In Vivo Chemical Probe for BCL6 Inhibition by Optimization of Tricyclic Quinolinones” (Journal of Medicinal Chemistry, 2023)
pIC50: −log10 of the molar value. Several values for one entry are separate records, joined by “and”; a condition that tells them apart may be missing. Identical values can stand only once. Like-named read-outs stand apart in the source and are kept apart here.

Columns and labels:
[1] = target: human BCL6 BTB domain (Homo sapiens, UniProt P41182); test: BCL6 TR-FRET assay; format: binding; settings: for IC90 / IC50 / BCL6 TR-FRET pIC50 mean: Table S1; for IC90: read-out: BCL6 TR-FRET IC90 Geometric Mean; for IC50: read-out: BCL6 TR-FRET pIC50 mean (converted)
Procedure: 1. Supplementary experimental: protein production, purification and crystallography 1.1 BCL6 constructs used for assays and crystallography […]
cleavage site. For the TR-FRET assay, the Trx-6His-HRV3C-BCL6 protein construct was used without cleaving the tag, as a 6His was needed to bind to the anti-6His-Terbium antibody. […]
For both plasmid constructs described above, transformed BL21-AI E. coli cells were grown in LB media […]
Expression was carried out at 18 °C for 18 hours. Cells were harvested by centrifugation (5500 g for 30 minutes at 4 °C) and stored at -80 °C.
Cells were re-suspended in a buffer composed of 20 mM Tris pH 8, 250 mM NaCl, 1 mM MgCl2, 0.5 mM […]
lysed by sonication followed by centrifugation at 21,000 g for 45 minutes at 4 °C. […]
ResourceQ and gel filtration using a HiLoad 26/60 Superdex75 column in a buffer containing 20 mM HEPES […]
The final protein was assessed for purity and molar mass by SDS-PAGE and high-resolution mass spectrometry, respectively.
For the uncleaved Trx-6His-HRV3C-BCL6 protein construct to be used in TR-FRET, the protein was directly eluted from the HisTrap FF column without HRV-3C treatment, and submitted to Superdex75 gel filtration […]
Test compounds in DMSO or DMSO alone […]
concentration in 0.7% v/v DMSO final. […]

[2] = system: BCL6; settings: OCI-Ly1 cells, cited from earlier work; for DC50: read-out: MSD degrader assay [OCI-Ly1] DC50
[3] = cited from earlier work
[4] = system: Caco-2 human colon carcinoma cell line; settings: cited from earlier work; for CACO-2 (ER): efflux ratio
[5] = target: T1, BCL6-SMRT (NCOR2) corepressor protein-protein interaction (Homo sapiens, UniProt P41182); test: NanoBRET cellular assay (HEK293T); format: cell-based
T1 construct: DNA encoding full length BCL6 and SMRT; expressed in transfected cells; host or cells: HEK293T
Procedure: Test compounds in DMSO or DMSO alone
concentration in 0.7% v/v DMSO final.
(also called NCOR2) corepressor protein-protein interaction. DNA encoding full length BCL6 and SMRT
fusion proteins BCL6-nanoLuc and SMRT-HaloTag, respectively. HEK293T cells were plated […] in T75
At the time of assay, compounds
dispensing (Labcyte Inc.). Frozen transfected HEK293T cells were thawed, centrifuged and freezing
DMSO final concentration.
After a short centrifugation the
(1st emission filter) / 450-80 nm (2nd emission filter). The % inhibition at each test concentration was
sigmoidal four-parameter logistic fit equation. […]

[6] = Microsomal clearance, mouse liver microsomes; settings: one value given; mouse microsomal clearance per text
[7] = supplement, read-out: BCL6 NanoBRET IC50 Geometric Mean
[8] = geometric mean of at least three replicates, read-out: BCL6 TR-FRET IC50
[9] = HEK-293T, Table S2, several values per compound, read-out: BCL6 NanoBRET IC90 Geometric Mean
[10] = HEK-293T, Table S2, read-out: BCL6 NanoBRET IC90 individual replicates
[11] = HEK-293T, geometric mean of at least three replicates, read-out: NanoBRET IC90
[12] = Table S2, several values per compound, read-out: BCL6 NanoBRET IC90 Geometric Mean
[13] = geometric mean of at least three replicates, read-out: NanoBRET IC50
[14] = single replicates, Table S2, read-out: BCL6 NanoBRET IC50 individual replicates
[15] = Table S2, read-out: BCL6 NanoBRET pIC50 mean (converted)
[16] = supplement, read-out: BCL6 TR-FRET IC50 Geometric Mean

| Compound | pIC50 [5, 7] | IC90 [1] | IC50 [1] | pIC50 [1, 8] | IC90 [5, 10] | BCL6 NanoBRET pIC50 mean ([5]; Table S2) | pIC50 [5, 13] | pIC50 [5, 14] | BCL6 TR-FRET pIC50 mean [1] | IC50 [5, 14] | also measured |
| --- | --- | --- | --- | --- | --- | --- | --- | --- | --- | --- | --- |
| C[C@H]1C[C@@H](O)CN(c2ncc(Cl)c(Nc3ccc4c(c3)c3c(c(=O)n4C)OCC(F)(F)[C@H](C4CC4)N3)n2)C1 [CCT373566] | – | – | – | – | – | – | – | – | – | – | pIC50 ([1]; read-out: BCL6 TR-FRET IC50 Geometric Mean): 8.66; MSD degrader assay [OCI-Ly1] Dmax [2]: 92%; DC50 [2]: 0.7 nM; Aq. Sol. [3]: 10 µM; CACO-2 A-B [4]: 3.2e-06 cm/s; CACO-2 (ER) [4]: 13 |
| C[C@@H]1C[C@H](O)CN(c2ncc(Cl)c(Nc3ccc4c(c3)c3c(c(=O)n4C)OCC(F)(F)[C@H](C4CC4)N3)n2)C1 [CCT373567] | 7.59 | – | – | – | – | – | – | – | – | – | pIC50 ([1]; BCL6 TR-FRET IC50 Geometric Mean): 8.55; DC50 [2]: > 10000 nM; Aq. Sol. [3]: 8 µM; CACO-2 A-B [4]: < 3e-06 cm/s; CACO-2 (ER) [4]: > 16 |
| Cn1c(=O)c2c(c3cc(Nc4nc(N5C6CCC5COC6)ncc4Cl)ccc31)N[C@@H](C1CC1)C(F)(F)CO2 [compound 4, (S)-10-((2-(3-Oxa-8-azabicyclo[3.2.1]octan-8-yl)-5-chloropyrimidin-4-yl)amino)-2-cyclopropyl-3,3-difluoro-7-methyl-1,2,3,4-tetrahydro-[1,4]oxazepino[2,3-c]quinolin-6(7H)-one] | – | 10.2 nM | 1.51 nM | 8.85 | 142 nM | 7.9696 | 7.97 and 7.96 | 7.91 and 8.09 and 7.92 | – | – | IC90 [5, 9]: 185 nM; calculated free (unbound) cellular IC90 ([5]; HEK-293T, calculated free cellular IC90 from NanoBRET assay): 42 nM; IC90 [5, 11]: 143 nM; IC90 [5, 12]: 101 nM and 154 nM |
| Cn1c(=O)c2c(c3cc(Nc4nc(N5CC6CCC(C5)O6)ncc4Cl)ccc31)N[C@@H](C1CC1)C(F)(F)CO2 [compound 5, (S)-10-((2-(8-Oxa-3-azabicyclo[3.2.1]octan-3-yl)-5-chloropyrimidin-4-yl)amino)-2-cyclopropyl-3,3-difluoro-7-methyl-1,2,3,4-tetrahydro-[1,4]oxazepino[2,3-c]quinolin-6(7H)-one] | – | 19.9 nM | – | 8.52 | 98.7 nM | 7.9026 | 7.90 | 8.02 and 7.83 and 7.85 | 8.527 | – | – |
| Cn1c(=O)c2c(c3cc(Nc4nc(N5C6COCC5CC(O)C6)ncc4Cl)ccc31)N[C@@H](C1CC1)C(F)(F)CO2 (stereo partly drawn) [compound 8, (S)-10-((5-Chloro-2-((1R,5S,7R)-7-hydroxy-3-oxa-9-azabicyclo[3.3.1]-nonan-9-yl)pyrimidin-4-yl)amino)-2-cyclopropyl-3,3-difluoro-7-methyl-1,2,3,4-tetrahydro-[1,4]oxazepino[2,3-c]quinolin-6(7H)-one] | – | 7.6 nM | 1.31 nM | 8.89 | – | – | – | – | – | – | – |
| Cn1c(=O)c2c(c3cc(Nc4nc(N5CCC5)ncc4Cl)ccc31)N[C@@H](C1CC1)C(F)(F)CO2 [compound 9, (S)-10-((2-(Azetidin-1-yl)-5-chloropyrimidin-4-yl)amino)-2-cyclopropyl-3,3-difluoro-7-methyl-1,2,3,4-tetrahydro-[1,4]oxazepino[2,3-c]quinolin-6(7H)-one] | 6.83 | 45.4 nM | – | 8.26 | 1620 nM | 6.8258 | 6.83 | 6.64 and 7.32 and 6.52 | 8.2581 | – | – |
| COC1CN(c2ncc(Cl)c(Nc3ccc4c(c3)c3c(c(=O)n4C)OCC(F)(F)[C@H](C4CC4)N3)n2)C1 [compound 10, (S)-10-((5-Chloro-2-(3-methoxyazetidin-1-yl)pyrimidin-4-yl)amino)-2-cyclopropyl-3,3-difluoro-7-methyl-1,2,3,4-tetrahydro-[1,4]oxazepino[2,3-c]quinolin-6(7H)-one] | – | 34.1 nM | 3.93 nM | 8.43 | 386 nM | – | 7.42 | 7.59 and 7.24 and 7.26 | – | – | IC50 [5, 15]: 43.6 nM |
| Cn1c(=O)c2c(c3cc(Nc4nc(N5CC(F)(F)C5)ncc4Cl)ccc31)N[C@@H](C1CC1)C(F)(F)CO2 [compound 11, (S)-10-((5-Chloro-2-(3,3-difluoroazetidin-1-yl)pyrimidin-4-yl)amino)-2-cyclopropyl-3,3-difluoro-7-methyl-1,2,3,4-tetrahydro-[1,4]oxazepino[2,3-c]quinolin-6(7H)-one] | – | 85.4 nM | – | 8.00 | 175 nM | 7.5086 | 7.51 | 7.21 and 7.74 and 7.57 | – | – | pIC50 [1, 16]: 7.99; IC90 [5, 11]: 175 nM |
| Cn1c(=O)c2c(c3cc(Nc4nc(N5CC(C#N)C5)ncc4Cl)ccc31)N[C@@H](C1CC1)C(F)(F)CO2 [compound 12, (S)-1-(5-Chloro-4-((2-cyclopropyl-3,3-difluoro-7-methyl-6-oxo-1,2,3,4,6,7-hexahydro-[1,4]oxazepino[2,3-c]quinolin-10-yl)amino)pyrimidin-2-yl)azetidine-3-carbonitrile] | 7.26 | 46.6 nM | – | 8.30 | 385 nM | 7.2623 | 7.26 | 7.13 and 7.19 and 7.46 | 8.3025 | – | IC90 [5, 9]: 532 nM; IC90 [5, 12]: 398 nM and 270 nM |
| Cn1c(=O)c2c(c3cc(Nc4nc(N5CC(F)C5)ncc4Cl)ccc31)N[C@@H](C1CC1)C(F)(F)CO2 [compound 13, (S)-10-((5-Chloro-2-(3-fluoroazetidin-1-yl)pyrimidin-4-yl)amino)-2-cyclopropyl-3,3-difluoro-7-methyl-1,2,3,4-tetrahydro-[1,4]oxazepino[2,3-c]quinolin-6(7H)-one] | – | 50.2 nM | 6.2 nM | 8.24 | 444 nM | – | 7.40 | 7.25 and 7.55 and 7.06 | – | – | IC50 [5, 15]: 52 nM |
| Cn1c(=O)c2c(c3cc(Nc4ccnc(Cl)c4C#N)ccc31)N[C@@H](C1CC1)C(F)(F)CO2 [compound 14] | 7.93 | 30.1 nM | 3.95 nM | 8.32 | 124 nM | 7.9327 | – | – | – | 14.7 nM and 10.4 nM (2×) | – |
| Cc1nccc(Nc2ccc3c(c2)c2c(c(=O)n3C)OCC(F)(F)[C@H](C3CC3)N2)c1Cl [compound 16, (S)-10-((3-chloro-2-methylpyridin-4-yl)amino)-2-cyclopropyl-3,3-difluoro-7-methyl-1,2,3,4-tetrahydro-[1,4]oxazepino[2,3-c]quinolin-6(7H)-one] | 6.89 | 158 nM | – | 7.73 | 639 nM | 6.8907 | – | 6.89 | 7.7332 | – | IC90 [5, 9]: 639 nM |
| Cn1c(=O)c2c(c3cc(Nc4ccnc(Cl)c4F)ccc31)N[C@@H](C1CC1)C(F)(F)CO2 [compound 18, (S)-10-((2-chloro-3-fluoropyridin-4-yl)amino)-2-cyclopropyl-3,3-difluoro-7-methyl-1,2,3,4-tetrahydro-[1,4]oxazepino[2,3-c]quinolin-6(7H)-one] | 6.97 | 201 nM | – | 7.68 | 616 nM | 6.9685 | 6.97 | 7.00 and 6.90 | 7.6837 | – | pIC50 [1, 16]: 7.68; IC90 [5, 9]: 625 nM; IC90 [5, 12]: 511 nM and 732 nM |
| (2S)-10-((2-(8-Acetyl-3,8-diazabicyclo[3.2.1]octan-3-yl)-5-chloropyrimidin-4-yl)amino)-2-cyclopropyl-3,3-difluoro-7-methyl-1,2,3,4-tetrahydro-[1,4]oxazepino[2,3-c]quinolin-6(7H)-one [compound 6] | – | 4.6 nM | – | 9.05 | – | 7.57 | 7.57 | 7.57 and 7.52 and 7.62 | 9.0422 | – | IC90 [5, 12]: 189 nM and 229 nM and 239 nM; IC90 ([5]; Table S2, read-out: BCL6 NanoBRET IC90 individual replicates): 218 nM; CLint H/M/R [6]: 214 μLmin^-1mg^-1 |
